Measured values taken from US20080318908A1, “USE OF GABA AND GABAB AGONISTS” (TRUSTEES OF TUFTS COLLEGE, priority 2002, published 2008).

Assays:
Format in all cases: cell-based, rat
islets [1] = assay: Islet total DNA content, Cyquant fluorescence assay
Procedure: To examine the potential function of GABAB receptor signaling in islet tissue, islets were enzymatically isolated from exocrine pancreas and studied in vitro. Islets were size-selected for these studies because of our observation that small islets (<150 μm diameter) express GABAB receptors more abundantly. Islets (equivalent to ˜10,000 cells per well of a 96 well culture plate) were incubated for 45 minutes with (or without) 100 μM GABA, washed once with growth medium M199, maintained for 4 hours at 37° C., and subsequently analyzed for total DNA content using a Cyquant (Molecular Probes) fluorescence assay. […] Large islets, by contrast, were much less responsive to GABA; increasing only by 15±4.5% in the same time period. The growth-promoting effect of GABA was mimicked by the selective GABAB receptor agonist, S-baclofen and inhibited with either 2OH-saclofen (a selective inhibitor of GABAB receptors) or the N-terminal antibody to the GABAB receptor (FIG. 4A).
To further evaluate the interactions between glucose and GABAB receptor activation, we measured GABA-mediated proliferation over a range of glucose concentrations.

islets [2] = assay: Glucose-stimulated proliferation in islets (DNA content)
Procedure: Others have shown that islet mass can increase by as much as 50% in just 96 hours of glucose infusion in vivo, an effect that results from increases in both cell size and cell number^15. Given that metabolism of glucose alone promotes secretion from β cells, we tested the hypothesis that glucose-stimulated proliferation in islets involves the activation of GABAB receptors by GABA released during glucose application. Islets were exposed to 5.6 mM glucose (a maximal proliferative stimulus in human islets) for 4.75 hours in the presence or absence of 2OH-saclofen or the GBR1 N-terminal antibody. Glucose promoted a small, but significant, 7±1% stimulation of control islets during this time (FIG. 5A).

islets [3] = assay: [3H]thymidine incorporation in islets; conditions: label present throughout the 4.75 hour experimental period
Procedure: [^3H]thymidine incorporation was employed as an alternative assay for DNA synthesis, with similar results to those of the fluorescence assay. The labeled nucleotide was added to the culture medium and was present throughout the 4.75 hour experimental period. GABA, and the agonist baclofen, acting via GABAB receptors produced a respective 143±19% and 115±4% increase in [^3H]thymidine incorporation (FIG. 4B).

islets [4] = assay: BrdU labeling of dividing islet cells; conditions: 4.75 hours; GABA-treated versus control islets
Procedure: To identify which cells in islets underlie the increase in DNA synthesis, cells treated with GABA were exposed to BrdU, to label the dividing cells, and compared to control cells. […] Given the brief incorporation period (4 hours following GABA exposure), such profiles imply that the responsive cells are likely to be synchronized in S phase.

spleen cells = assay: DNA content of dissociated cultured spleen, Cyquant assay; conditions: 100 micromolar for 45 minutes, then four hours in fresh medium at 37°
Procedure: An experiment to test the ability of GABA and the GABAB receptor agonist to stimulate growth of other tissues was undertaken. Rat spleen was mechanically dissociated in trypsin, washed, and plated identical to the experiments using rat islets, described above. The dissociated tissue was cultured in the presence of 100 micromolar GABA or baclofen for 45 minutes and compared to cultured but untreated dissociated spleen. After 45 minutes the media was changed and the tissue incubated in fresh medium for four hours at 37°. DNA measurements were made by the Cyquant assay by Molecular Probes.

NCC(O)(CS(=O)(=O)O)c1ccc(Cl)cc1 (stereo not shown) [2OH-saclofen, reference compound]
effect on growth-promoting effect of GABA (islets [1]; isolated islets with GABA, FIG. 4A, 100 μM antagonist or antibody 1:1000): inhibited
DNA, % of DNA content measured at the beginning of the incubation period (islets [2]; 5.6 mM glucose for 4.75 hours in the presence of 2OH-saclofen): 92±4%

NCCCC(=O)O [GABA, 4-aminobutanoic acid]
GABA-stimulated DNA synthesis at moderate glucose (islets [1]; 45 min exposure to 100 μM GABA, 5.6 mM glucose): peaked at moderate glucose concentrations
GABA-stimulated DNA synthesis at higher glucose (islets [1]; 45 min exposure to 100 μM GABA, 16.7 mM glucose): suppressed the stimulatory effect of GABA
increase in DNA synthesis, large islets (islets [1]; large islets, 100 μM GABA 45 minutes, same 4.75 hour period): 15±4.5%
increase in DNA synthesis, small islets (islets [1]; small islets (<150 μm diameter), 100 μM GABA 45 minutes, then 4 hours at 37° C., 4.75 hours total): 45%
increase in [3H]thymidine incorporation (islets [3]): 143±19%
BrdU incorporation (islets [4]): detectable BrdU incorporation
DNA content of cultured spleen cells versus untreated (spleen cells): promoted an increase in the DNA content

OC[C@H]1OC(O)[C@H](O)[C@@H](O)[C@@H]1O (stereo partly shown) [Glucose]
stimulation of control islets (DNA) (islets [2]; 5.6 mM glucose for 4.75 hours): 7±1%

NC[C@@H](CC(=O)O)c1ccc(Cl)cc1 [S-baclofen, reference compound]
growth-promoting effect of GABA mimicked by agonist (islets [1]; isolated islets, FIG. 4A, 100 μM): mimicked

NCC(CC(=O)O)c1ccc(Cl)cc1 (stereo not shown) [baclofen, 4-amino-3-(4-chlorophenyl)butanoic acid, reference compound]
increase in [3H]thymidine incorporation (islets [3]): 115±4%
DNA content of cultured spleen cells versus untreated (spleen cells): promoted an increase in the DNA content
